# Results: BindingDB's records for doi:10.1021/jm8005433 (A* Star, 2008)
# Target: Bcl-2-like protein 1 (Homo sapiens, UniProt Q07817)
# Assay: Fluorescence Polarization Assay
# Settings: pH 8; 22 °C
# Procedure: In the fluorescence polarization assay, the Bcl-XL protein is incubated with a fluorescein-tagged Bak-BH3 peptide. The Bcl-XL:Bak-BH3 peptide complex is then titrated with the test compounds, and the displacement of the Bak-BH3 peptide is measured as a function of decreasing polarized fluorescence. The fluorescence polarization values were determined using a Tecan GeniosPro plate reader using the excitation/emission wavelengths 485/535 nm. The binding affinities are reported as the inhibitory concentration of the titrant required to displace 50% of the Bak-BH3 peptide (IC50).
# Bcl-2-like protein 1, sequence (Q07817 whole entry): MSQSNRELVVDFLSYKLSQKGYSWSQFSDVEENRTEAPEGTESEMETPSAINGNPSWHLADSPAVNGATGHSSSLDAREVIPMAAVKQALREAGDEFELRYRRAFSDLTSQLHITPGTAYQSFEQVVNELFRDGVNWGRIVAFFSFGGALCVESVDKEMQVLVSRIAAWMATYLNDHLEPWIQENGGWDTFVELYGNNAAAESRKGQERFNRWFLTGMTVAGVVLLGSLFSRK
row,Compound,IC50 [µM]
1,COc1ccc2c(c[n+](C)c3c4cc5c(cc4ccc23)OCO5)c1OC,100
2,C[n+]1cc2c3c(ccc2c2ccc4cc5c(cc4c21)OCO5)OCO3,19
3,"C[n+]1cc2c3c(ccc2c2cc(CCO)ccc21)OCO3 [4-(2-hydroxyethyl)-8-methyl-12,14-dioxa-8-azatetracyclo[8.7.0.0^{2,7}.0^{11,15}]heptadeca-1(10),2(7),3,5,8,11(15),16-heptaen-8-ium chloride]",3
4,"Cn1cc2c(=O)c(O)ccc-2c2cc(CCO)ccc21 [7,8-dihydroxy-2-(2-hydroxyethyl)-5-methylphenanthridin-5-ium chloride]",22
5,"Cn1cc2c(=O)c(O)ccc-2c2cc(CO)ccc21 [7,8-dihydroxy-2-(hydroxymethyl)-5-methylphenanthridin-5-ium chloride]",20
6,"Cn1cc2c(=O)c(O)ccc-2c2ccccc21 [7,8-dihydroxy-5-methylphenanthridin-5-ium chloride]",18
7,"COc1ccc2c(c[n+]([O-])c3ccccc23)c1OC [7,8-dimethoxy-5-oxidophenanthridin-5-ium]",> 100
8,"C[n+]1cc2c3c(ccc2c2ccccc21)OCO3 [8-methyl-12,14-dioxa-8-azatetracyclo[8.7.0.0^{2,7}.0^{11,15}]heptadeca-1(10),2(7),3,5,8,11(15),16-heptaen-8-ium iodide]",12

# Results, then the compound that gave them:
row,IC50 [µM],Compound
1,> 100,"COc1ccc2c(c[n+](C)c3ccc(CO)cc23)c1OC [2-(hydroxymethyl)-7,8-dimethoxy-5-methylphenanthridin-5-ium chloride]"
2,6,"COCCc1ccc2c(c1)c1ccc3c(c1c[n+]2C)OCO3 [4-(2-methoxyethyl)-8-methyl-12,14-dioxa-8-azatetracyclo[8.7.0.0^{2,7}.0^{11,15}]heptadeca-1(10),2(7),3,5,8,11(15),16-heptaen-8-ium chloride]"
3,11,"C[n+]1cc2c3c(ccc2c2cc(CO)ccc21)OCO3 [4-(hydroxymethyl)-8-methyl-12,14-dioxa-8-azatetracyclo[8.7.0.0^{2,7}.0^{11,15}]heptadeca-1(10),2(7),3,5,8,11(15),16-heptaen-8-ium chloride]"
4,11,"COCc1ccc2c(c1)c1ccc3c(c1c[n+]2C)OCO3 [4-(methoxymethyl)-8-methyl-12,14-dioxa-8-azatetracyclo[8.7.0.0^{2,7}.0^{11,15}]heptadeca-1(10),2(7),3,5,8,11(15),16-heptaen-8-ium chloride]"
5,> 100,"COc1ccc2c(c[n+](C)c3ccccc23)c1OC [7,8-dimethoxy-5-methylphenanthridin-5-ium iodide]"
6,> 100,"C[n+]1cc2c3c(ccc2c2ccccc21)OC(C)(C)O3 [8,13,13-trimethyl-12,14-dioxa-8-azatetracyclo[8.7.0.0^{2,7}.0^{11,15}]heptadeca-1(10),2(7),3,5,8,11(15),16-heptaen-8-ium iodide]"
7,> 100,"[O-][n+]1cc2c3c(ccc2c2ccccc21)OCO3 [8-oxido-12,14-dioxa-8-azatetracyclo[8.7.0.0^{2,7}.0^{11,15}]heptadeca-1(10),2(7),3,5,8,11(15),16-heptaen-8-ium]"
8,> 100,"CC1(C)Oc2ccc3c(c[n+]([O-])c4ccccc34)c2O1 [13,13-dimethyl-8-oxido-12,14-dioxa-8-azatetracyclo[8.7.0.0^{2,7}.0^{11,15}]heptadeca-1(10),2(7),3,5,8,11(15),16-heptaen-8-ium]"
